Columns and labels:
Test in all cases: -log10 GI50 (growth inhibition 50%) (-log10(M)); higher = more potent growth inhibition
BT20 = tested on: BT20
Summary of the method: (§1)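 Breast cancer cell lines were exposed to each compound for 72 hours at nine doses in 1:5 serial dilution, in triplicate, with a luminescence read-out against a time-zero plate. A Gompertz curve was fitted to the dose-response data by nonlinear least squares. The value is minus log10 of GI50, the molar concentration giving the set level of growth inhibition. Values equal to the top dose carry a < qualifier.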

600MPE = tested on: 600MPE
Summary of the method: as §1

HCC202 = tested on: HCC202
Summary of the method: as §1

MX1 = tested on: MX1
Summary of the method: as §1

MDAMB134VI = tested on: MDAMB134VI
Summary of the method: as §1

HCC1569 = tested on: HCC1569
Summary of the method: as §1

HBL100 = tested on: HBL100
Summary of the method: as §1

SUM229PE = tested on: SUM229PE
Summary of the method: as §1

MDAMB175VII = tested on: MDAMB175VII
Summary of the method: as §1

184A1 = tested on: 184A1
Summary of the method: as §1

HCC3153 = tested on: HCC3153
Summary of the method: as §1

MDAMB468 = tested on: MDAMB468
Summary of the method: as §1

MDAMB436 = tested on: MDAMB436
Summary of the method: as §1

UACC893 = tested on: UACC893
Summary of the method: as §1

S1 = tested on: S1
Summary of the method: as §1

SUM102PT = tested on: SUM102PT
Summary of the method: as §1

T4 = tested on: T4
Summary of the method: as §1

ZR7530 = tested on: ZR7530
Summary of the method: as §1

Row | SMILES | -log10 GI50 (BT20) | -log10 GI50 (600MPE) | -log10 GI50 (HCC202) | -log10 GI50 (MX1) | -log10 GI50 (MDAMB134VI) | -log10 GI50 (HCC1569) | -log10 GI50 (HBL100) | -log10 GI50 (SUM229PE) | -log10 GI50 (MDAMB175VII) | -log10 GI50 (184A1) | -log10 GI50 (HCC3153) | -log10 GI50 (MDAMB468) | -log10 GI50 (MDAMB436) | -log10 GI50 (UACC893) | -log10 GI50 (S1) | -log10 GI50 (SUM102PT) | -log10 GI50 (T4) | -log10 GI50 (ZR7530)
1 | C#Cc1cccc(Nc2ncnc3cc(OCCOC)c(OCCOC)cc23)c1 [Erlotinib] | 5.7 | 4.3 | 5.57 | 5.16 | < 4.18 | 4.78 | < 4.18 | 4.95 | 5.52 | 6.64 | 4.51 |  |  |  |  |  |  | 
2 | O=C1c2ccccc2-[n+]2ccc3c([nH]c4ccccc43)c21 [Fascaplysin] | 6.51 | 6.55 | 7.37 | 6.53 | 6.65 | 6.33 | 6.26 | 6.51 | 6.68 | 6.4 | 6.55 |  |  |  |  |  |  | 
3 | O=c1[nH]cc(F)c(=O)[nH]1 [Fluorouracil] |  | 4.11 | 4.77 |  | 2.66 | 3.96 | 4.15 | 4.08 | 3.96 | 3.88 | 3.45 | 3.62 | 2.97 | 3.45 | 3.9 |  |  | 
4 | COc1cc2ncnc(Nc3ccc(F)c(Cl)c3)c2cc1OCCCN1CCOCC1 [Gefitinib] |  | 5.21 | 6.45 |  | 4.72 | 5.19 | 4.94 | 5.21 | 6.55 | < 4.48 | < 4.48 | 4.72 | < 4.48 | 5.94 | 6.57 | 5.73 |  | 
5 | Cc1ccc(NC(=O)c2ccc(CN3CCN(C)CC3)cc2)cc1Nc1nccc(-c2cccnc2)n1 [Imatinib] | 4.89 | 4.62 | 5.81 | 4.65 | 4.47 | 4.75 | 4.62 | 5.27 | 5.01 | 4.86 | 4.52 |  |  |  |  |  |  | 
6 | Cc1ccc(C(=O)N(CCCN)[C@@H](c2nc3cc(Cl)ccc3c(=O)n2Cc2ccccc2)C(C)C)cc1 [Ispinesib] | 7.77 | 7.69 | 8.12 | 7.92 | 7.36 | 6.8 | 7.52 | 7.48 | 5.84 | 5.84 | 7.56 |  |  |  |  |  |  | 
7 | COc1ccc(C2=N[C@@H](c3ccc(Cl)cc3)[C@@H](c3ccc(Cl)cc3)N2C(=O)N2CCNC(=O)C2)c(OC(C)C)c1 [Nutlin 3a] | 4.41 | 4.81 | 5.02 | 4.65 | 4.47 | 4.43 | 4.32 | 4.63 | 5.23 | 5.46 | 4.56 |  |  |  |  |  |  | 
8 | O=C(O)C(=O)O.[NH-][C@@H]1CCCC[C@H]1[NH-].[Pt+2] [Oxaliplatin] |  |  | 5.27 |  | 3.54 | 5.35 | 5.65 | 5.72 | 5.44 | 5.89 | 5.19 |  | 4.46 | 3.83 | 4.68 |  | 5.21 | < 3.2
9 | CC(=O)O[C@H]1C(=O)[C@@]2(C)[C@H]([C@H](OC(=O)c3ccccc3)[C@]3(O)C[C@H](OC(=O)[C@H](O)[C@@H](NC(=O)c4ccccc4)c4ccccc4)C(C)=C1C3(C)C)[C@]1(OC(C)=O)CO[C@@H]1C[C@@H]2O [Paclitaxel] |  | 7.51 | 8.1 |  | 7.99 | 7.95 | 8.35 | 7.72 | 7.74 | 7.35 | 7.7 | 8.06 | 7.65 | 7.93 | 7.84 |  | 8.04 | 7.66
10 | CC(C)[C@H](CO)Nc1nc(Nc2cccc(Cl)c2)c2ncn(C(C)C)c2n1 [Purvalanol A] | 4.57 | 4.15 | 4.02 | < 3.78 | 4.26 | 4.7 | 4.6 | 4.91 | 4.12 | 4.62 | 3.83 |  |  |  |  |  |  | 
11 | CO[C@H]1C[C@@H]2CC[C@@H](C)[C@@](O)(O2)C(=O)C(=O)N2CCCC[C@H]2C(=O)O[C@H]([C@H](C)C[C@@H]2CC[C@@H](O)[C@H](OC)C2)CC(=O)[C@H](C)/C=C(\C)[C@@H](O)[C@@H](OC)C(=O)[C@H](C)C[C@H](C)/C=C/C=C/C=C/1C [Rapamycin] | 7.17 | 5.12 | 8.24 | 5.77 | 9.57 | 6.7 | 4.24 | 4.86 | 8.43 | 6.72 | 5.25 | 4.75 | 3.85 | < 3.78 |  |  |  | 
12 | CNC(=O)c1cc(Oc2ccc(NC(=O)Nc3ccc(Cl)c(C(F)(F)F)c3)cc2)ccn1 [Sorafenib] | 4.2 | 4.36 | 4.14 |  | 4.54 | 4.27 | 4.33 | 5 | 4.46 | 5.53 | 4.31 |  |  |  |  |  |  | 
13 | CC/C(=C(\c1ccccc1)c1ccc(OCCN(C)C)cc1)c1ccccc1 [Tamoxifen] |  | 4.35 | 4.55 |  | 6.78 | < 3.78 | 4.32 | 5.62 | < 3.78 | < 3.78 | < 3.78 |  | 4.51 | 4.72 | 5.84 |  |  | 
14 | CC[C@@]1(O)C(=O)OCc2c1cc1n(c2=O)Cc2cc3c(CN(C)C)c(O)ccc3nc2-1 [Topotecan] |  |  | 6.08 |  | 6.94 | 5.8 | 7.87 | 7.2 | 5.95 | 6.88 | 6.68 | 7.66 | 7.65 | 6.59 | 4.63 | 6.12 |  | 
15 | CCC1=C[C@@H]2CN(C1)Cc1c([nH]c3ccccc13)[C@@](C(=O)OC)(c1cc3c(cc1OC)N(C)[C@H]1[C@@](O)(C(=O)OC)[C@H](OC(C)=O)[C@]4(CC)C=CCN5CC[C@]31[C@@H]54)C2 [Vinorelbine] |  | 5.97 | 7.89 |  | 7.95 | 6.42 | 8.02 | 8.68 | 7.41 |  | 7.29 | 8.01 | 7.57 | 7.96 | 8.34 |  |  | 

Reference: the supplement of paper PMC3937590
